Experimental data reported in paper PMC3448946 (Biochemistry, 2011).
Read-outs that look alike come from different tables or passages of the source.

Assays:
[1] = target: T1, MSOX (monomeric sarcosine oxidase) (Bacillus sp., UniProt P40859); assay: Spectral titration of MSOX; assay type: binding; conditions: for Kd: 50 mM potassium phosphate buffer
T1 sequence (P40859 1-390): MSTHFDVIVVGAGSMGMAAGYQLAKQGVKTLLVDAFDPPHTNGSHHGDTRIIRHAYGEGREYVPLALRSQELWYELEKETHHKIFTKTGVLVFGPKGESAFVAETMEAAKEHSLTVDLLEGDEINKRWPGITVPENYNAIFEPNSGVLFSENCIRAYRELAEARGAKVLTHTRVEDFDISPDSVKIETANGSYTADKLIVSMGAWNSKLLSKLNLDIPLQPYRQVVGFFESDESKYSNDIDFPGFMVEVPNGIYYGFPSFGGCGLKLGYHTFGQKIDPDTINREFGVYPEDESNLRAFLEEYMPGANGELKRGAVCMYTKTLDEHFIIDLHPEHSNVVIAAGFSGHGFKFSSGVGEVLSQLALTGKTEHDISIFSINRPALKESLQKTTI

reduced MSOX [2] = target: T2, reduced MSOX (Bacillus sp., UniProt P40859)
Lys265Met MSOX mutant = Lys265Met MSOX mutant (Bacillus sp., UniProt P40859, K266M); conditions: absorption spectrum of mutant unaffected by 2.0 M potassium chloride
GOX (glucose oxidase) = GOX (glucose oxidase) (Aspergillus niger, UniProt P13006); assay: biochemical
Chain of GOX (glucose oxidase) (P13006 23-605 limits assumed): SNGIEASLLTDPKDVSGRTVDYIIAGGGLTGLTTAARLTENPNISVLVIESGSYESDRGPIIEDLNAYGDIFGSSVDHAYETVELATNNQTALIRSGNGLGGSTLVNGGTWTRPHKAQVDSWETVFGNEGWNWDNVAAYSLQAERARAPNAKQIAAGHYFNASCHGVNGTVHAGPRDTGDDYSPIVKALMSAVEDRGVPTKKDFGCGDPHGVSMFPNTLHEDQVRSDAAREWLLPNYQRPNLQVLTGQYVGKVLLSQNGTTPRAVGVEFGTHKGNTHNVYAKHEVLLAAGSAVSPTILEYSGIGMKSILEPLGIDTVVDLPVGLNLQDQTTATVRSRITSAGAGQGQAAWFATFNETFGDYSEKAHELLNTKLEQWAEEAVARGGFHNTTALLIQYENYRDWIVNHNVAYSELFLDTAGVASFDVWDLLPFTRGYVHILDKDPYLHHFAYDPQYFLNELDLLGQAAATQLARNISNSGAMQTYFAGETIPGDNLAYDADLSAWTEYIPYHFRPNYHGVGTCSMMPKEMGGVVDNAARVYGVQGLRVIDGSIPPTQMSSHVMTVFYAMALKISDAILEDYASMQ

reduced MSOX [3] = target: T2, reduced MSOX; conditions: absence of chloride; cited from earlier work
reduced MSOX [4] = target: T2, reduced MSOX; assay: biochemical

CSCC(=O)O [MTA, methylthioacetate]
Kd ([1]; MSOX + MTA ⇄ MSOX•MTA, no additions, pH 8.0, 25 °C): 2.43 ± 0.02 mM | Kd ([1]; MSOX + MTA ⇄ MSOX•MTA, plus 667 mM sodium sulfate, pH 8.0, 25 °C, plus 667 mM sodium sulfate): 1.84 ± 0.01 mM | Kd ([1]; MSOX•Cl− + MTA ⇄ MSOX•Cl−•MTA, pH 8.0, containing 2.0 M potassium chloride, 25 °C, absorbance at 528 nm): 4.9 ± 0.07 mM

Cl [chloride]
Chloride binding at oxygen activation site of reduced MSOX in solution (reduced MSOX [2]): not bound | Chloride binding to Lys265Met MSOX (Lys265Met MSOX mutant): eliminates chloride binding | Kd (GOX (glucose oxidase)): 6.2 ± 0.1 mM

O=O [oxygen]
Second-order rate constant for reaction of reduced MSOX with oxygen (reduced MSOX [2]; 50 mM potassium phosphate, pH 8.0, 2.0 M potassium chloride, 25 °C, monitored at 454 nm): 2.48 ± 0.03 × 10^5 M^−1 s^−1 | Second-order rate constant for reaction of reduced MSOX with oxygen (reduced MSOX [3]): 2.83 ± 0.07 × 10^5 M^−1 s^−1 | Kd (reduced MSOX [4]): ≥ 10 mM

O=S(=O)([O-])[O-].[Na+].[Na+] [sulfate, sodium sulfate]
Binding of sulfate to MSOX ([1]; 667 mM sodium sulfate control for ionic strength): does not bind
